Data on one molecule can be found in paper PMC5512002 (Cellular signalling, 2017).

This assay has as its target T1, GPR55 (Rattus norvegicus, UniProt F1MAK4).
T1 sequence (F1MAK4 1-319): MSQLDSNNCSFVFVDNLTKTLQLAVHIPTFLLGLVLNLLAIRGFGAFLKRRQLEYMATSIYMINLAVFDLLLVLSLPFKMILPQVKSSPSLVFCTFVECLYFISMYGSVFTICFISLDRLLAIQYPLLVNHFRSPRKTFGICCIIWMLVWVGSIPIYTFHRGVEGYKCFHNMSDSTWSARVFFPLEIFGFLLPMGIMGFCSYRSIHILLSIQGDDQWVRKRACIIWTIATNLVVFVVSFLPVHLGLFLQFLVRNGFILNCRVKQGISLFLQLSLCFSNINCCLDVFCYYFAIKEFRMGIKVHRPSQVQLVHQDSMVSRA
The assay can be described thus: inhibition of uptake of fluorescent GPR55 ligand T1117 in live C6 cells. Format: cell-based.

SMILES strings stand for the structures.

Broadly, the IC50 is the point on the concentration scale where inhibition reaches its midpoint. Molecule `COc1ccc(C[C@@H](C)NC[C@H](O)c2cc(O)cc(O)c2)c2ccccc12` [(R,R′)-MNF] gave an IC50 of 320 nM.
